Experimental data published in EP4467137A1, “TREATMENT OF FRONTOTEMPORAL DEMENTIA OR FRONTOTEMPORAL LOBAR DEMENTIA” (Universidad Autónoma de Madrid, priority 2023, dated 2024).

Experiments:
[1] = system: HEK-293 FRET biosensor containing tau repeating domains; experiment: Tau seeding assay in HEK-293 tau FRET biosensor cells; assay type: cell-based; settings: Tg4510 mouse brain homogenate as aggregant stimulus; increasing concentrations
Procedure: (§1) • Figure 1. Compound 1 reduces the inflammatory response against LPS in vitro. (A) Nitric oxide (NO) production in BV2 cells detected by DAF 24 h after LPS exposure and normalized by cell viability measured by MTT (n = 9). (B) qRT-PCR of TNFα (n = 9) in BV2 cells after 24 h LPS exposure. Sulforaphane (Sfn) was used as a positive control. […] Compound 1 decreases the inflammatory process 4 and 24 hours after LPS administration in vivo. Compound 1 (20 mg·kg^-1) daily was injected i.p. four days before the i.p. LPS (0.5 mg·kg^-1) administration. […] Compound 1 ameliorates the resolution of the inflammatory process triggered by LPS. […] (B) Locomotion activity measured by line crossings of an imaginary grid. […] Compound 1 reduced tau seeding in HEK-293 tau FRET biosensor measured by flow cytometer (C). […] Representative images of hyperphosphorylated tau intensity measured by AT8 and AT180 antibodies in three different regions of the hippocampus (GD, CA3 and CA1) (n = 11-12). (B) Quantification AT8 intensity, normalized to CA3 intensity of Sham animals. (C) Quantification of AT180 intensity, normalized to CA3 intensity of Sham animals (n = 9-12). […] Quantification of sarkosyl soluble (n = 10) (C) and insoluble species (D) using AT8 antibody (n = 10). Quantification of sarkosyl soluble (n = 10) (E) and insoluble species (F) using AT180 antibody (n = 10). […]

[2] = system: hyperphosphorylated tau; experiment: Hyperphosphorylated tau (AT8 immunofluorescence) in primary neurons treated with AAV-hTauP301L; assay type: cell-based, mouse; settings: treatment every other day for 8 days, compound 1 at 30 µM
[3] = system: BV2 cells; experiment: Nitric oxide detection with DAF in LPS-exposed BV2 cells; assay type: cell-based, mouse; settings: 24 h LPS
Procedure: as §1

[4] = molecular target: T1, human lipoxygenase-5 (hLOX-5) (Homo sapiens, UniProt P09917); experiment: Inhibition of human lipoxygenase-5; assay type: biochemical; settings: mean ± SD of three independent experiments in triplicate; read-out: LOX5 IC50
T1 sequence (P09917 1-674): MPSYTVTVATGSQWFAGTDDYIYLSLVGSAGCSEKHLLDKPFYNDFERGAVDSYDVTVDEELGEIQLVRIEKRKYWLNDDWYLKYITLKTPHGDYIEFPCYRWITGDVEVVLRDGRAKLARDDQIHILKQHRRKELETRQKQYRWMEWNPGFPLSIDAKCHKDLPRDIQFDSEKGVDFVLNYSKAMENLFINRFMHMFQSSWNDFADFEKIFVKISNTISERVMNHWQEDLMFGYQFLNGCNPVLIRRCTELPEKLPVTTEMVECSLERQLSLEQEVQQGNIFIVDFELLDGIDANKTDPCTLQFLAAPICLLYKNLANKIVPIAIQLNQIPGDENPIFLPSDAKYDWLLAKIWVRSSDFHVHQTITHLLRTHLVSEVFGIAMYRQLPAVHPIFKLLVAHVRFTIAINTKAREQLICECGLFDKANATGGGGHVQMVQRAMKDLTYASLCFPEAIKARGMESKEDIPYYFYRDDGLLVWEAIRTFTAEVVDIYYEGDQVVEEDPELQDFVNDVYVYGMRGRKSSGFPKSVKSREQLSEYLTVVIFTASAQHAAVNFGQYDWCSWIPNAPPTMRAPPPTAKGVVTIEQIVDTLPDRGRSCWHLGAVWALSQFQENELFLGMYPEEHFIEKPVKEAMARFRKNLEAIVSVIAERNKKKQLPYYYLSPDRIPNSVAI
Procedure: The inhibition of human lipoxygenase-5 (hLOX-5) was performed as described [Herrera-Arozamena, Clara et al. "Tuning melatonin receptor subtype selectivity in oxadiazolone-based analogues: Discovery of QR2 ligands and NRF2 activators with neurogenic properties." European journal of medicinal chemistry vol. 190 (2020): 112090. doi:10.1016/j.ejmech.2020.112090], Data are the mean ± SD of three independent experiments performed in triplicate.

COc1ccc2c(c1)CC(c1c[nH]c3ccc(OC)cc13)N2 (centres unmarked) [Compound 1, 5-Methoxy-3-(5-methoxyindolin-2-yl)-1H-indole]
tau seeding (integrated FRET density) [1]: reduce tau seeding ability following a concentration dependent effect
AT8 intensity levels [2]: reduced
NO production ([3]; 10 µM, BV2 cells): reduced to basal levels
nitric oxide (NO) in BV2 cells exposed to LPS ([3]; over the concentrations tested): concentration-dependent reduction
IC50 [4]: 3.08 ± 0.29 µM
